Data as given in US10059701B2 (Merck Patent GmbH, priority 2015, dated 2018).
pIC50: −log10 of the molar value.

How the values were obtained:
IRAK4 = target: T1, IRAK4 (Homo sapiens, UniProt Q9NWZ3); assay: IRAK4 enzymatic assay (ADP-Glo luminescence); type: biochemical; details: purified human recombinant His-TEV-IRAK4 (1-460), ATP 2 μM
T1 construct: His-TEV-IRAK4 (1-460); His (N); TEV cleavage site (N)
T1 sequence (Q9NWZ3 1-460): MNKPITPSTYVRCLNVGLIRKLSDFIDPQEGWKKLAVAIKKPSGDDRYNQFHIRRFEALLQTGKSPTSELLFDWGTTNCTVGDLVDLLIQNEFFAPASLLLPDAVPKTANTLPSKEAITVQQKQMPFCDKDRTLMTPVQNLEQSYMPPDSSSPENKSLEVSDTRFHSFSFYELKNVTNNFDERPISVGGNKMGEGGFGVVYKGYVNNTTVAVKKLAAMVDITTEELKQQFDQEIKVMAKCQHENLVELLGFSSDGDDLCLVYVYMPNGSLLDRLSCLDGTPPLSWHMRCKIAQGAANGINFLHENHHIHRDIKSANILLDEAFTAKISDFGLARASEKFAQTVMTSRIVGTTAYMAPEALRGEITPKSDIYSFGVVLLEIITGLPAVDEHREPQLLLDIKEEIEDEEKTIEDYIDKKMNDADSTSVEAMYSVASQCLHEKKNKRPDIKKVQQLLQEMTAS
In short: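 ADP-Glo luminescence read-out after a 2 h RT kinase reaction with 2 μM ATP and 300 nM biotinylated STK1 peptide. Enzyme (His-TEV-IRAK4 1-460, 0.3 μg/ml) first incubated 15 min with serially diluted compounds (10 μM–0.5 nM) in 50 mM Hepes pH 7.0, 10 mM MgCl2, 5 mM MnCl2.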

IRAK1 = target: T2, IRAK1 (Homo sapiens, UniProt P51617); assay: IRAK1 enzymatic assay (ADP-Glo luminescence); type: biochemical; details: purified human recombinant His-TEV-IRAK1 (194-712)
T2 construct: His-TEV-IRAK1 (194-712); His (N); TEV cleavage site (N)
T2 sequence (P51617 194-712): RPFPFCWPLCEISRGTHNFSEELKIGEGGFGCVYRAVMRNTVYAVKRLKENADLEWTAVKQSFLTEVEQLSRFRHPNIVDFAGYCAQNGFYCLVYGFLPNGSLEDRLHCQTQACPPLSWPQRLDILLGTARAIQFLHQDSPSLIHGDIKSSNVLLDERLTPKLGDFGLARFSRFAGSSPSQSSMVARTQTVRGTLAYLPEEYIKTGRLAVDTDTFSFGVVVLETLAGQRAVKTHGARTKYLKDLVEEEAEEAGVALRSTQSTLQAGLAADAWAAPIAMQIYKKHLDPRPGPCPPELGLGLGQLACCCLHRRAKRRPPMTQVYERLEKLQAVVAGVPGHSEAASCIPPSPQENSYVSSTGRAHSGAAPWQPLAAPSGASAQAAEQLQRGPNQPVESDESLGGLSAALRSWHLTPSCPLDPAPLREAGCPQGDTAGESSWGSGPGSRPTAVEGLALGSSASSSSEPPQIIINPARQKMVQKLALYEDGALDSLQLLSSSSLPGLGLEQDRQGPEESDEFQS
In short: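 Luminescent ADP-Glo read-out of ATP turnover by purified His-TEV-IRAK1 (194-712) at 0.3 μg/ml after a 2-hour RT reaction. Compounds, serially diluted from 10 μM to 0.5 nM, were preincubated with enzyme 15 minutes in Hepes pH 7.0 buffer with MgCl2, DTT, EGTA and Triton X-100.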

pIC50 (IRAK4)	pIC50 (IRAK1)	Compound
≥ 7.00	6.00 to 7.00	N#Cc1cccc(C(=O)/N=c2\[nH]c3cc(N4CCCOC4=O)ccc3n2CC2(F)CCOCC2)c1 [Example 230, (E)-3-cyano-N-(1-((4-fluorotetrahydro-2H-pyran-4-yl)methyl)-5-(2-oxo-1,3-oxazinan-3-yl)-1H-benzo[d]imidazol-2(3H)-ylidene)benzamide]
≥ 7.00	≥ 7.00	Cc1cc2c(cc1N1CCOCC1=O)[nH]/c(=N\C(=O)c1cc(F)cc(C(F)(F)F)c1)n2CCCO [Compound 67, (E)-3-fluoro-N-(1-(3-hydroxypropyl)-6-methyl-5-(3-oxomorpholino)-1H-benzo[d]imidazol-2(3H)-ylidene)-5-(trifluoromethyl)benzamide]
≥ 7.00	6.00 to 7.00	O=C(/N=c1\[nH]c2cc(N3CCOCC3=O)ccc2n1CCCO)c1cccc(C(F)(F)F)c1 [Compound 86, (E)-N-(1-(3-hydroxypropyl)-5-(3-oxomorpholino)-1H-benzo[d]imidazol-2(3H)-ylidene)-3-(trifluoromethyl)benzamide]
≥ 7.00	6.00 to 7.00	O=C(/N=c1\[nH]c2cc(N3CCOCC3=O)ccc2n1CCCO)c1cccc(-n2cnnn2)c1 [Compound 83, (E)-N-(1-(3-hydroxypropyl)-5-(3-oxomorpholino)-1H-benzo[d]imidazol-2(3H)-ylidene)-3-(1H-tetrazol-1-yl)benzamide]
≥ 7.00	< 6.00	O=C(O)CCn1/c(=N/C(=O)c2cccc(C(F)(F)F)c2)[nH]c2cc(N3CCOCC3=O)ccc21 [Compound 166, (E)-3-(5-(3-oxomorpholino)-2-((3-(trifluoromethyl)benzoyl)imino)-2,3-dihydro-1H-benzo[d]imidazol-1-yl)propanoic acid]
≥ 7.00	6.00 to 7.00	O=C(/N=c1\[nH]c2cc(N3CCOCC3=O)ccc2n1CCCO)c1cccc(F)c1 [Compound 35, (E)-3-fluoro-N-(1-(3-hydroxypropyl)-5-(3-oxomorpholino)-1H-benzo[d]imidazol-2(3H)-ylidene)benzamide]
≥ 7.00	≥ 7.00	CS(=O)(=O)CCn1/c(=N/C(=O)c2cccc(C(F)F)c2)[nH]c2cc(N3CCOCC3=O)ccc21 [Compound 93, (E)-3-(difluoromethyl)-N-(1-(2-(methylsulfonyl)ethyl)-5-(3-oxomorpholino)-1H-benzo[d]imidazol-2(3H)-ylidene)benzamide]
≥ 7.00	6.00 to 7.00	Cn1cnn(-c2ccc3c(c2)[nH]/c(=N\C(=O)c2cccc(C(F)(F)F)c2)n3CCCO)c1=O [Compound 188, (E)-N-(1-(3-hydroxypropyl)-5-(4-methyl-5-oxo-4,5-dihydro-1H-1,2,4-triazol-1-yl)-1H-benzo[d]imidazol-2(3H)-ylidene)-3-(trifluoromethyl)benzamide]
< 6.00	< 6.00	O=C(/N=c1\[nH]c2cc(N3CCOCC3=O)ccc2n1C1(CO)CCCCC1)c1cccc(C(F)(F)F)c1 [Compound 39, (E)-N-(1-(1-(hydroxymethyl)cyclohexyl)-5-(3-oxomorpholino)-1H-benzo[d]imidazol-2(3H)-ylidene)-3-(trifluoromethyl)benzamide]
≥ 7.00	6.00 to 7.00	CC1(C)CN(c2ccc3c(c2)[nH]/c(=N\C(=O)c2cccc(C(F)F)c2)n3CCCO)C(=O)O1 [Example 200, (E)-3-(difluoromethyl)-N-(5-(5,5-dimethyl-2-oxooxazolidin-3-yl)-1-(3-hydroxypropyl)-1H-benzo[d]imidazol-2(3H)-ylidene)benzamide]
≥ 7.00	6.00 to 7.00	CC(F)(F)c1cccc(C(=O)/N=c2\[nH]c3cc(N4CCOCC4=O)ccc3n2CCCO)c1 [Compound 103, (E)-3-(1,1-difluoroethyl)-N-(1-(3-hydroxypropyl)-5-(3-oxomorpholino)-1H-benzo[d]imidazol-2(3H)-ylidene)benzamide]
≥ 7.00	6.00 to 7.00	O=C(/N=c1\[nH]c2cc(N3CCCOC3=O)ccc2n1CCC(F)(F)F)c1cccc(C(F)(F)F)c1 [Compound 176, (E)-N-(5-(2-oxo-1,3-oxazinan-3-yl)-1-(3,3,3-trifluoropropyl)-1H-benzo[d]imidazol-2(3H)-ylidene)-3-(trifluoromethyl)benzamide]
≥ 7.00	6.00 to 7.00	O=C(/N=c1\[nH]c2cc(N3CCCNC3=O)ccc2n1CCCO)c1cccc(C(F)(F)F)c1 [Compound 1, (E)-N-(1-(3-hydroxypropyl)-5-(2-oxotetrahydropyrimidin-1(2H)-yl)-1H-benzo[d]imidazol-2(3H)-ylidene)-3-(trifluoromethyl)benzamide]
≥ 7.00	6.00 to 7.00	CN(C)S(=O)(=O)c1cccc(C(=O)/N=c2\[nH]c3cc(N4CCOCC4=O)ccc3n2CCCO)c1 [Compound 101, (E)-3-(N,N-dimethylsulfamoyl)-N-(1-(3-hydroxypropyl)-5-(3-oxomorpholino)-1H-benzo[d]imidazol-2(3H)-ylidene)benzamide]
≥ 7.00	6.00 to 7.00	C[S+]([O-])CCCCn1/c(=N/C(=O)c2cccc(C(F)F)c2)[nH]c2cc(N3CCOCC3=O)ccc21 (stereo not drawn) [Compound 88]
≥ 7.00	6.00 to 7.00	CC1(C)CCOC(=O)N1c1ccc2[nH]c(=NC(=O)c3cccc(C(F)F)c3)n(CCCO)c2c1 [Example 219]
≥ 7.00	6.00 to 7.00	O=C(/N=c1\[nH]c2cc(N3CCOCC3=O)ccc2n1CCCO)c1cccc(CO)c1 [Compound 21, (E)-3-(hydroxymethyl)-N-(1-(3-hydroxypropyl)-5-(3-oxomorpholino)-1H-benzo[d]imidazol-2(3H)-ylidene)benzamide]
≥ 7.00	≥ 7.00	O=C(/N=c1\[nH]c2cc(N3CCOCC3=O)c(OC(F)F)cc2n1CCCO)c1cccc(C(F)(F)F)c1 [Example 211, (E)-N-(6-(difluoromethoxy)-1-(3-hydroxypropyl)-5-(3-oxomorpholino)-1H-benzo[d]imidazol-2(3H)-ylidene)-3-(trifluoromethyl)benzamide]
≥ 7.00	≥ 7.00	N#Cc1cccc(C(=O)/N=c2\[nH]c3cc(N4CCOCC4=O)ccc3n2CC2(CO)CC2)c1 [Compound 12, (E)-3-cyano-N-(1-((1-(hydroxymethyl)cyclopropyl)methyl)-5-(3-oxomorpholino)-1H-benzo[d]imidazol-2(3H)-ylidene)benzamide]
≥ 7.00	6.00 to 7.00	O=C(/N=c1\[nH]c2cc(N3CCOCC3=O)ccc2n1CCCO)c1cccnc1 [Compound 77, (E)-N-(1-(3-hydroxypropyl)-5-(3-oxomorpholino)-1H-benzo[d]imidazol-2(3H)-ylidene)nicotinamide]
≥ 7.00	6.00 to 7.00	O=C(/N=c1\[nH]c2cc(N3CCCCS3(=O)=O)ccc2n1CCCO)c1cccc(C(F)(F)F)c1 [Compound 190, (E)-N-(5-(1,1-dioxido-1,2-thiazinan-2-yl)-1-(3-hydroxypropyl)-1H-benzo[d]imidazol-2(3H)-ylidene)-3-(trifluoromethyl)benzamide]
≥ 7.00	6.00 to 7.00	O=C(/N=c1\[nH]c2cc(N3CCOCC3=O)ccc2n1CCCO)c1cccc(Cl)c1 [Compound 106, (E)-3-chloro-N-(1-(3-hydroxypropyl)-5-(3-oxomorpholino)-1H-benzo[d]imidazol-2(3H)-ylidene)benzamide]
≥ 7.00	6.00 to 7.00	CC1(C)CCOC(=O)N1c1ccc2[nH]c(=NC(=O)c3cccc(C(F)(F)F)c3)n(CCCO)c2c1 [Example 221]
≥ 7.00	≥ 7.00	CC(C)Oc1cc2c(cc1N1CCOCC1=O)[nH]/c(=N\C(=O)c1cccc(C(F)F)c1)n2CCCO [Compound 137, (E)-3-(difluoromethyl)-N-(1-(3-hydroxypropyl)-6-isopropoxy-5-(3-oxomorpholino)-1H-benzo[d]imidazol-2(3H)-ylidene)benzamide]
< 6.00	< 6.00	O=C(O)Cn1/c(=N/C(=O)c2cccc(C(F)(F)F)c2)[nH]c2cc(N3CCOCC3=O)ccc21 [Compound 167, (E)-2-(5-(3-oxomorpholino)-2-((3-(trifluoromethyl)benzoyl)imino)-2,3-dihydro-1H-benzo[d]imidazol-1-yl)acetic acid]
≥ 7.00	≥ 7.00	O=C(/N=c1\[nH]c2cc(N3CCOCC3=O)c(C3CC3)cc2n1CCCO)c1cccc(C(F)(F)F)c1 [Example 208, (E)-N-(6-cyclopropyl-1-(3-hydroxypropyl)-5-(3-oxomorpholino)-1H-benzo[d]imidazol-2(3H)-ylidene)-3-(trifluoromethyl)benzamide]
≥ 7.00	≥ 7.00	O=C(/N=c1\[nH]c2cc(N3CCOCC3=O)ccc2n1CCCO)c1cccc(S(=O)(=O)C(F)(F)F)c1 [Compound 152, (E)-N-(1-(3-hydroxypropyl)-5-(3-oxomorpholino)-1H-benzo[d]imidazol-2(3H)-ylidene)-3-((trifluoromethyl)sulfonyl)benzamide]
